Measured values reported in PMC4861429, “Molecular Insights into Toluene Sensing in the TodS/TodT Signal Transduction System” (The Journal of Biological Chemistry, 2016).

Experiments:
Experiment in all cases: ITC
Type in all cases: binding
[1] = molecular target: T1, PAS1(23–168); dimerization helix-containing PAS1 of TodS (Pseudomonas putida, UniProt A5W4E3)
T1 construct: PAS1 sensor domain with dimerization helix, residues 23-168; N-terminal His6 tag kept; E. coli C41(DE3); dimer in solution

[2] = molecular target: T2, PAS1(23–168); dimerization helix-containing PAS1 of TodS (Pseudomonas putida, UniProt A5W4E3, I114V)
T2 construct: PAS1 sensor domain with dimerization helix, residues 23-168; N-terminal His6 tag kept; E. coli C41(DE3); dimer in solution

[3] = molecular target: T3, PAS1(23–168); dimerization helix-containing PAS1 of TodS (Pseudomonas putida, UniProt A5W4E3, F46A)
T3 construct: PAS1 sensor domain with dimerization helix, residues 23-168; N-terminal His6 tag kept; E. coli C41(DE3); dimer in solution

[4] = molecular target: T4, PAS1(23–168); dimerization helix-containing PAS1 of TodS (Pseudomonas putida, UniProt A5W4E3, E146A)
T4 construct: PAS1 sensor domain with dimerization helix, residues 23-168; N-terminal His6 tag kept; E. coli C41(DE3); dimer in solution

[5] = molecular target: T5, PAS1(23–168); dimerization helix-containing PAS1 of TodS (Pseudomonas putida, UniProt A5W4E3, V59A)
T5 construct: PAS1 sensor domain with dimerization helix, residues 23-168; N-terminal His6 tag kept; E. coli C41(DE3); dimer in solution

[6] = molecular target: T6, PAS1(23–168); dimerization helix-containing PAS1 of TodS (Pseudomonas putida, UniProt A5W4E3, F79Y)
T6 construct: PAS1 sensor domain with dimerization helix, residues 23-168; N-terminal His6 tag kept; E. coli C41(DE3); dimer in solution

[7] = molecular target: T7, PAS1(23–168); dimerization helix-containing PAS1 of TodS (Pseudomonas putida, UniProt A5W4E3, W85H)
T7 construct: PAS1 sensor domain with dimerization helix, residues 23-168; N-terminal His6 tag kept; E. coli C41(DE3); dimer in solution
T7 sequence (A5W4E3 23-168 W85H): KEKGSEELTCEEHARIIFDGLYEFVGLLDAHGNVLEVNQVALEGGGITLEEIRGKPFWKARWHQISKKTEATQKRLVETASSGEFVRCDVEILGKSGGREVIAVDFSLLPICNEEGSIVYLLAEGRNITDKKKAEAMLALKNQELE

T1 sequence (A5W4E3 23-168): as the sequence (A5W4E3 23-168 W85H) above, with H63W counted along it
T2 sequence (A5W4E3 23-168 I114V): as the sequence (A5W4E3 23-168 W85H) above, with H63W, I92V counted along it
T6 sequence (A5W4E3 23-168 F79Y): as the sequence (A5W4E3 23-168 W85H) above, with F57Y, H63W counted along it
T4 sequence (A5W4E3 23-168, stated change not applied): as the sequence (A5W4E3 23-168 W85H) above, with H63W counted along it
T3 sequence (A5W4E3 23-168 F46A): as the sequence (A5W4E3 23-168 W85H) above, with F24A, H63W counted along it
T5 sequence (A5W4E3 23-168 V59A): as the sequence (A5W4E3 23-168 W85H) above, with V37A, H63W counted along it

| SMILES | Kd [1] [µM] | Kd [2] [µM] | Kd [3] [µM] | Kd [4] [µM] | Kd [5] [µM] | Kd [6] [µM] | Kd [7] [µM] |
| --- | --- | --- | --- | --- | --- | --- | --- |
| Cc1cccc(C)c1 [m-xylene] | 9.5 | 6.1 | – | – | – | – | – |
| Cc1ccccc1 [toluene] | 8.5 | 8.4 | 95.2 | 9.6 | 14.6 | 71.4 | 10.6 |
